Marks after values point to notes of the source that are not given here.
Key:
[1] = system: 16C mammary adenocarcinoma; assay: 16C mammary adenocarcinoma SC tumor implants in C3H mice, tumor growth; type: in vivo; details: for Days Delay in tumor growth: endpoint of 1500 mg tumor weight, 16C tumors, C3H mice
Procedure: Female C3H mice (8-11 animals per group) received early SC implants of 16C mammary adenocarcinoma tumor fragments (near 100% “take”) and were treated with vehicle, [N109D]-IGFBP-3 (4 mg/kg/day SC ×21), 5-FU (10 mg/kg/day IP ×5), adriamycin (2 mg/kg/dose IV on day 1 and day 8 post-implant), or the indicated combinations. Tumors were measured twice weekly. Animals were sacrificed at Day 21. The doses of doxorubicin and 5-fluorouracil used in this experiment were chosen to be marginally effective, based on previous experience with these chemical agents in this model. […] The results are shown graphically in FIG. 2.

[2] = system: 1,176 mouse gene sequences; assay: Gene array analysis (Atlas 1.2k-I mouse gene arrays) of 16C tumor tissue; type: in vivo
Procedure: (§1) In order to gain further insights into the mechanism of action of exogenously added IGFBP-3 in these mouse models, tumor tissues from the groups treated with vehicle, doxorubicin, or doxorubicin plus IGFBP-3, were further analyzed using gene array technology. RNA was extracted from tumor tissue. cDNA was prepared, labelled and used to probe Atlas 1.2k-I mouse gene arrays (Clontech Laboratories Inc., Palo Alto, Calif.). These arrays contain 1,176 mouse gene sequences.

RXR-alpha = RXR-alpha levels in 16C tumor tissue (gene array); type: in vivo, mouse; details: 16C tumors from treated animals
Procedure: as §1

MDA-MB-231 tumors = assay: MDA-MB-231 mammary tumors implanted SC in nude mice, tumor growth; type: in vivo; details: for Median tumor volume, day 15: Day 15 post-implant (treatment start); for Median tumor volume, day 15 / Days Delay in tumor growth: MDA-MB-231, nude mice; for Median tumor volume, day 19: Day 19 post-implant; for Median tumor volume, day 22: Day 22 post-implant; for Median tumor volume, day 26: Day 26 post-implant; for Median tumor volume, day 29: Day 29 post-implant; for Median tumor volume, day 33: Day 33 post-implant; for Tumor growth, difference from control: statistical comparison with the control group; for Days Delay in tumor growth: endpoint of 3× doubling of tumor weight
Procedure: MDA-MB-231 tumors were implanted in nude mice. Ten animals (NCr-nu) were allocated to each group. The tumors were implanted SC as trocar fragments and allowed to increase in size to approximately 170 mg before treatment began on Day 15 post-implant. The treatment regimen for [N109D]-IGFBP-3 was 4.0 mg/kg/dose, daily for 21 days, SC beginning on Day 15. The treatment regimen for Taxol was 5.0 mg/kg/day, daily for five days, IV. The treatment regimen for Cisplatin was 4.0 mg/kg/dose, administered every fourth day for three treatments, IP. Treatment regimens for TAXOL® and Cisplatin began on Day 18. Tumor measurements were performed daily.

tumor growth = assay: Systemic IGFBP-3 alone in animal models of cancer, tumor growth; type: in vivo; details: 4 mg/kg for 21 days, more than one animal model of cancer
Procedure: This was surprising because it was believed that IGFBP-3 alone could cause the death of some tumor cells. The dose chosen is likely to be close to the maximum practicable dose that would be systemically delivered in a human clinical setting. The maximum practicable dose is determined by the cost, pharmacokinetics, toxicology, solubility of the formulation, route of administration, and other practical considerations.

| Compound | Days Delay in tumor growth [1] | Median tumor volume, day 15 (MDA-MB-231 tumors) | Median tumor volume, day 19 (MDA-MB-231 tumors) | Median tumor volume, day 22 (MDA-MB-231 tumors) | Median tumor volume, day 26 (MDA-MB-231 tumors) | Median tumor volume, day 29 (MDA-MB-231 tumors) | Median tumor volume, day 33 (MDA-MB-231 tumors) | Tumor growth, difference from control (MDA-MB-231 tumors) | Days Delay in tumor growth (MDA-MB-231 tumors) | also measured |
| --- | --- | --- | --- | --- | --- | --- | --- | --- | --- | --- |
| O=c1[nH]cc(F)c(=O)[nH]1 [5-FLUOROURACIL, 5-fluorouracil] | +1.9 days | – | – | – | – | – | – | – | – | – |
| COc1cccc2c1C(=O)c1c(O)c3c(c(O)c1C2=O)C[C@@](O)(C(=O)CO)C[C@@H]3O[C@H]1C[C@H](N)[C@H](O)[C@H](C)O1 [ADRIAMYCIN ®, doxorubicin] | +2.5* days | – | – | – | – | – | – | – | – | Number of down-regulated genes ([2]; among the differentially expressed genes): 16 genes; Number of differentially expressed genes ([2]; of 1,176 gene sequences): 26 genes; Share of genes differentially expressed ([2]; of 1,176 gene sequences): 2%; Inhibition of RXR-alpha levels in tumors (RXR-alpha): not |
| N.N.[Cl][Pt][Cl] [CISPLATIN, cisplatin] | – | 171 ± 33 milligrams | 368 ± 124 milligrams | 446 ± 175 milligrams | 563 ± 214 milligrams | 675 ± 220 milligrams | 922 ± 299 milligrams | significantly different from control | – | – |
| CC(=O)O[C@H]1C(=O)[C@@]2(C)[C@H]([C@H](OC(=O)c3ccccc3)[C@]3(O)C[C@H](OC(=O)[C@H](O)[C@@H](NC(=O)c4ccccc4)c4ccccc4)C(C)=C1C3(C)C)[C@]1(OC(C)=O)CO[C@@H]1C[C@@H]2O [TAXOL ®, paclitaxel] | – | 153 ± 32 milligrams | 327 ± 131 milligrams | 384 ± 337 milligrams | 512 ± 489 milligrams | 648 ± 538 milligrams | 900 ± 1067 milligrams | significantly different from control | +3.5 days | – |
| IGFBP-3: insulin-like growth factor binding protein 3; in Table 2 the group received [N109D]-IGFBP-3 | – | 161 ± 35 milligrams | 367.5 ± 244 milligrams | 565 ± 510 milligrams | 818.5 ± 750 milligrams | 1089 ± 851 milligrams | 1936 ± 1825 milligrams | – | – | Slowing of tumor growth by IGFBP-3 alone (tumor growth): completely ineffective |
| [N109D]-IGFBP-3: derivative of IGFBP-3 that has an amino acid sequence alteration at position 109 of the mature sequence | -0.2 days | – | – | – | – | – | – | not significantly different from control | -2.2 days | Effect on tumor growth on its own ([1]; 4 mg/kg/day SC ×21): no measurable effects; Potentiation of the effects of co-administered doxorubicin and 5-fluorouracil ([1]; 4 mg/kg/day SC ×21 with marginally effective doses of the agents): significantly (p<0.01) potentiated the effects of both agents |
